Results taken from patent publication US7053078B2, “Serine protease inhibitors” (Eli Lilly and Company, priority 2000, dated 2006).

melting point	Structure (SMILES)
253 to 257 °C	COc1ccc(C(=O)N[C@@H](CNC(=O)C2CCN(C3CCCC3)CC2)c2ccccc2)cc1
239 to 243 °C	COc1ccc(C(=O)N[C@@H](CNC(=O)C2CCN(C3CCCCC3)CC2)c2ccccc2)cc1
245 to 251 °C	CCN1CCC(C(=O)NC[C@H](NC(=O)c2ccc(OC)cc2)c2ccccc2)CC1
252 to 259 °C	COc1ccc(C(=O)N[C@@H](CNC(=O)C2CCN(C3CCN(C)CC3)CC2)c2ccccc2)cc1
